Where “and” joins values, the source holds several entries; their conditions need not be identical. Equal values may be shown once.
Tests used:
[1] = tested on: GABAA receptors of HDC−/− TMN neurons; assay: GABA-evoked whole-cell currents in TMN neurons from HDC−/− mice; assay type: cell-based, mouse; conditions: read-out: IC50 of inhibition of maximal GABA (0.5 mM) responses; adult HDC−/− mice, n = 5
Procedure: (§1) Recordings from histaminergic neurons in male Wistar rat (22–26 day old) or 30–60 day old mouse (SV129, histidine decarboxylase deficient HDC−/− or their wild type littermates) hypothalamic slices were performed as previously described. Slices were obtained between 9 and 11 a.m. In the beginning of whole-cell voltage clamp recordings TMN neurons were identified with the help of DIC microscopy and electrophysiological criteria as previously described. Inhibitory postsynaptic currents (IPSCs) were evoked by local stimulation through a bipolar stainless-steel stimulating electrode (50 µm; WPI, UK). The stimulation of axonal endings coming to TMN from ventrolateral preoptic area (VLPO) was done as described in [22]. […] Individual neurons were separated by vibrodissociation after brief preincubation with papain from the hypothalamic slices of mice or rats and identified as TMN neurons according to their size and shape. Identification was confirmed post hoc with the single-cell RT-PCR (all data presented in the manuscript were obtained from histidine decarboxylase-expressing neurons), [40]. TMN neurons from HDC−/− mice were identified by the expression of peripherin [16]. Whole-cell voltage-clamp recordings from isolated neurons were done with an EPC-9 amplifier and TIDA for Windows (HEKA, Lambrecht, Germany) at room temperature. Membrane potentials were not corrected for liquid junction potential (5.6 mV, calculated with LJPCalc, Barry, 1994). The intracellular solution was composed of (in mM) 140 KCl, 2 MgCl2, 0.5 CaCl2, 5 EGTA, 2 ATP and 10 HEPES (pH 7.2 adjusted with NaOH). A fast perfusion technique was used for application of ligands and modulators of fast ionotropic receptors, [41]. […] EC50 is the ligand concentration producing a half-maximal response, [ligand] is ligand concentration, and n is the Hill slope. Hill coefficients were obtained from the slope of the log/log plot of the dose-response curves. […] Steady-state amplitudes of the responses were used for the construction of dose-response plots if not mentioned otherwise.

GABAA receptor = assay: Voltage dependence of GABAAR block (Woodhull analysis); assay type: cell-based
Procedure: Voltage dependence of GABAAR block by UDCA was analysed according to the method of Woodhull, which provides a means of calculating the fraction of the transmembrane field sensed by charged blocking ligand at its acceptor site.

[2] = biological target: T1, α1V256Sβ2γ2L GABAA receptors (UniProt P22723+P62813+P63138, V283S); assay: Patch-clamp of mutant α1V256Sβ2γ2L GABAAR in HEK293 cells; assay type: cell-based, rat α1V256S, rat β2, mouse γ2L
T1 construct: expressed in transfected cells; host or cells: HEK293
T1 sequence (P62813 28-455 V283S): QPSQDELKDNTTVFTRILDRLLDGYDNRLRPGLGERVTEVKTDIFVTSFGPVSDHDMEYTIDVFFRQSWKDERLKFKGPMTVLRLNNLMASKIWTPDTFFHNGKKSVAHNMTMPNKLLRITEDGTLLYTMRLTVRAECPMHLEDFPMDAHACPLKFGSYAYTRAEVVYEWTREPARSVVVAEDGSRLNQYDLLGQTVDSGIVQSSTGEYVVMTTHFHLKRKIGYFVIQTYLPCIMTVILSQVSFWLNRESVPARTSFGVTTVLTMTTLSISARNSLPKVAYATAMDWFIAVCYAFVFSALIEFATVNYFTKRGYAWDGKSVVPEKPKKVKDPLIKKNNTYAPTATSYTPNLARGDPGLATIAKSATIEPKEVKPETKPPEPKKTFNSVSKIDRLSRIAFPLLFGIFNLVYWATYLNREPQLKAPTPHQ
T1 sequence (P63138 25-474 limits assumed): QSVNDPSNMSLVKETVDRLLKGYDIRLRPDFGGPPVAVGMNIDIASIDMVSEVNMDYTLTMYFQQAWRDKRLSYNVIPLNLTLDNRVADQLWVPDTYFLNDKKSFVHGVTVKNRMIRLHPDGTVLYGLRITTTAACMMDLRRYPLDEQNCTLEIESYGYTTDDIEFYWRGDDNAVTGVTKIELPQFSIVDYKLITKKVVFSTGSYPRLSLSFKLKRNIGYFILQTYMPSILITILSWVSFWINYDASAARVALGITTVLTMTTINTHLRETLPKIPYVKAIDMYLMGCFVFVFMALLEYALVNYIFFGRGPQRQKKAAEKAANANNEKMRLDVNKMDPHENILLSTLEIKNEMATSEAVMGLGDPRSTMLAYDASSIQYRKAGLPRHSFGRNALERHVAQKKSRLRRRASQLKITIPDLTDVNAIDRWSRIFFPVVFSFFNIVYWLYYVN
T1 sequence (P22723 39-474): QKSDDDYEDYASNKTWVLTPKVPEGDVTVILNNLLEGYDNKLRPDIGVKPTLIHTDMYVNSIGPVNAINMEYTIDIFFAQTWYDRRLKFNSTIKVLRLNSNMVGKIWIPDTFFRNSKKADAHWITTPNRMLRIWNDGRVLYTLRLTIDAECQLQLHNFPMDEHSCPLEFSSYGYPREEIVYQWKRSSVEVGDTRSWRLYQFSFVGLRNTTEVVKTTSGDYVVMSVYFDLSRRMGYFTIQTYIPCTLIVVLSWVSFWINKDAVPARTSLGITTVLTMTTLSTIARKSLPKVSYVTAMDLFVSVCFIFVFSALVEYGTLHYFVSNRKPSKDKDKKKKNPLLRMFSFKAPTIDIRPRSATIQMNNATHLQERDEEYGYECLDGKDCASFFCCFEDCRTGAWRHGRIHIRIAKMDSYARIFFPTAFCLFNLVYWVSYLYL
Procedure: (§2) HEK 293 cells were obtained from DSM (Deutsche Sammlung von Mikroorganismen und Zellkulturen GmbH, DSM, Braunschweig). They were grown and maintained according to published standard protocols. Briefly, cells were grown in minimal essential medium supplemented with 10% fetal bovine serum, 100units/ml penicillin and streptomycin and 2 mM L-glutamine and splitted once per week. Semiconfluent cells were transfected on the third day after splitting with the help of Lipofectamine 2000 (Invitrogen), recordings were done 48–72 hrs after transfection.
(§3) The GABAAR subunit cDNAs, generously donated by G.Gisselmann (rat α1, mouse γ2L, rat β1, β2 and human β3 [26]) and J.H. Steinbach (rat α1V256S [28] and rat α1Q241L [44]), were subcloned into pcDNA3 (Invitrogen, Karlsruhe, Germany) and applied in a ratio 1∶1∶1 for the α1βxγ2L receptor and 1∶1 for α1β3 or β3γ2L receptors. […] For each receptor type patch clamp recordings were obtained from at least three separate transfections. Whole-cell patch clamp recordings were done in a similar extracellular solution as for the native cells (see above) except that the concentration of MgCl2 was reduced to 1.2 mM. Intracellular electrodes contained 140 mM CsCl (instead of KCl), pH adjusted with CsOH. The voltage was held at −40 mV.

[3] = biological target: T2, α1Q241L mutant α1β2γ2L GABAA receptors (UniProt P22723+P62813+P63138, Q268L); assay: Patch-clamp of mutant α1Q241L-containing α1β2γ2L GABAAR in HEK293 cells; assay type: cell-based, rat α1Q241L, rat β2, mouse γ2L; conditions: UDCA 100 µM, 500 µM GABA, n = 5
T2 construct: expressed in transfected cells; host or cells: HEK293
T2 sequence (P62813 28-455 Q268L): as the sequence (P62813 28-455 V283S) above, with Q241L, S256V counted along it
T2 sequence (P63138 25-474 limits assumed): as the sequence (P63138 25-474 limits assumed) above
T2 sequence (P22723 39-474): as the sequence (P22723 39-474) above
Procedure: as §2, §3

[4] = biological target: T3, α1β2γ2L GABAA receptors (WT) (UniProt P22723+P62813+P63138); assay: Patch-clamp of recombinant wild-type α1β2γ2L GABAAR in HEK293 cells; assay type: cell-based, rat α1, rat β2, mouse γ2L
T3 construct: expressed in transfected cells; host or cells: HEK293
T3 sequence (P62813 28-455): as the sequence (P62813 28-455 V283S) above, with S256V counted along it
T3 sequence (P63138 25-474 limits assumed): as the sequence (P63138 25-474 limits assumed) above
T3 sequence (P22723 39-474): as the sequence (P22723 39-474) above
Procedure: as §2, §3

[5] = tested on: TMN neurons (eIPSCs and sIPSCs); assay: Spontaneous and evoked IPSCs in TMN neurons in brain slices; assay type: cell-based, rat
Procedure: as §1

AMPA-receptor = assay: Kainate-evoked AMPA-receptor mediated currents in isolated neurons; assay type: cell-based
Procedure: Recordings from histaminergic neurons in male Wistar rat (22–26 day old) or 30–60 day old mouse (SV129, histidine decarboxylase deficient HDC−/− or their wild type littermates) hypothalamic slices were performed as previously described. Slices were obtained between 9 and 11 a.m. In the beginning of whole-cell voltage clamp recordings TMN neurons were identified with the help of DIC microscopy and electrophysiological criteria as previously described. Inhibitory postsynaptic currents (IPSCs) were evoked by local stimulation through a bipolar stainless-steel stimulating electrode (50 µm; WPI, UK). The stimulation of axonal endings coming to TMN from ventrolateral preoptic area (VLPO) was done as described in [22]. […] Individual neurons were separated by vibrodissociation after brief preincubation with papain from the hypothalamic slices of mice or rats and identified as TMN neurons according to their size and shape. Identification was confirmed post hoc with the single-cell RT-PCR (all data presented in the manuscript were obtained from histidine decarboxylase-expressing neurons), [40]. TMN neurons from HDC−/− mice were identified by the expression of peripherin [16]. […] Membrane potentials were not corrected for liquid junction potential (5.6 mV, calculated with LJPCalc, Barry, 1994). […]

native GABAA receptors = assay: GABA-evoked whole-cell currents in acutely isolated TMN neurons (wild type); assay type: cell-based, mouse
Procedure: as §1

[6] = parameters: method as in PMID 12236487, PMID 15349909; conditions: after several month of UDCA therapy (up to 35 mg/kg); cited from earlier work
α1β1γ2L GABAA receptors = biological target: T4, α1β1γ2L GABAA receptors (UniProt P15431+P22723+P62813); assay: Patch-clamp of recombinant α1β1γ2L GABAAR in HEK293 cells; assay type: cell-based, rat α1, rat β1, mouse γ2L
T4 construct: expressed in transfected cells; host or cells: HEK293
T4 sequence (P62813 28-455): as the sequence (P62813 28-455 V283S) above, with S256V counted along it
T4 sequence (P15431 26-474): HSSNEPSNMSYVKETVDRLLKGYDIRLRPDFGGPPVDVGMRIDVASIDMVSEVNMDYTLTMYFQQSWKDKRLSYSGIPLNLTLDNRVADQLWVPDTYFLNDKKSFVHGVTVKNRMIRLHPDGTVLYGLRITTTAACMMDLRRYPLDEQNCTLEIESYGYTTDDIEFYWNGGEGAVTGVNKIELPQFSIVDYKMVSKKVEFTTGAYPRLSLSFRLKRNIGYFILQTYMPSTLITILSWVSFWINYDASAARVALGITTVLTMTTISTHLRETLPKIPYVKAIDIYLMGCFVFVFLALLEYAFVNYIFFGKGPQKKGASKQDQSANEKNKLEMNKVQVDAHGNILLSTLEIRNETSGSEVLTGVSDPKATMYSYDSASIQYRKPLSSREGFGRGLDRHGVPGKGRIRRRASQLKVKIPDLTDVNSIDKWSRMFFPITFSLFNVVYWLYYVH
T4 sequence (P22723 39-474): as the sequence (P22723 39-474) above
Procedure: as §2, §3

[7] = parameters: method as in PMID 22356133; conditions: cited from earlier work
[8] = tested on: isolated TMN neurons (sIPSCs); assay: sIPSCs in acutely isolated and cultured neurons; assay type: cell-based
Procedure: as §1

C[C@H](CCC(=O)O)[C@H]1CC[C@H]2[C@@H]3[C@@H](O)C[C@@H]4C[C@H](O)CC[C@]4(C)[C@H]3CC[C@]12C [UDCA, ursodeoxycholic acid]
IC50 [1]: 90 ± 5 µM
current amplitude at +50 mV in the presence of UDCA (GABAA receptor): 69±5 % of control (−50 mV)
fraction of the transmembrane field sensed at the acceptor site (f) (GABAA receptor; Woodhull fit, Eq. 3): 0.29±0.03
Kd (GABAA receptor; Woodhull fit, Eq. 3, read-out: KD(0), dissociation constant at 0 mV): 64 µM
stationary GABA current in the presence of UDCA relative to unblocked current (GABAA receptor; at +50 mV): 28±2%
stationary GABA current in the presence of UDCA relative to unblocked current (GABAA receptor; at −50 mV): 59±2%
relative amplitude of maximal GABA-responses ([2]; UDCA 100 µM, n = 5): 87±1 % of control
IC50 ([2]; n = 4): 330 ± 41 µM
maximal steady-state GABA current [3]: 54±2 % of control
IC50 ([4]; IC50 of inhibition of GABA currents, maximal GABA, WT): 85 µM and 84.7 µM
relative amplitude of maximal GABA-responses ([4]; UDCA 100 µM, n = 7): 47±3 % of control
effect on eIPSCs and sIPSCs ([5]; 30 µM): ineffective
amplitude of eIPSCs and sIPSCs ([5]; 100 µM): significantly inhibited the amplitude of eIPSCs and sIPSCs in less than half of the neurons
amplitude and decay time of eIPSCs and sIPSCs ([5]; 300 µM, all investigated neurons): significant reductions
AMPA-receptor mediated currents (AMPA-receptor; 100 µM): did not affect
AMPA-receptor mediated currents (responses to 150 µM of kainate) (AMPA-receptor; up to […]): did not affect
deactivation time constant (τoff) (native GABAA receptors): prolonged
peak current amplitude of maximal GABA-mediated whole-cell currents (native GABAA receptors): not affected
use dependence of block of GABA currents (native GABAA receptors): not use dependent
reversibility of block of GABA currents (native GABAA receptors; GABA 10 µM, 1 s): fully reversible
concentration at which inhibition of GABA-evoked currents and sIPSCs starts (native GABAA receptors; acutely isolated histaminergic neurons): 10 µM
macroscopic apparent desensitization of responses to saturating GABA (native GABAA receptors; decrease of fast decay time constant and steady-state/peak ratio): concentration-dependently enhanced
IC50 (native GABAA receptors; native receptors, steady-state currents, read-out: IC50 of inhibition of GABA-evoked currents): 92 µM
share of the total bile acid pool [6]: 58–69%
IC50 (α1β1γ2L GABAA receptors): 96 ± 17 µM
access to the CNS [7]: reaches the CNS
decay kinetics of sIPSCs ([8]; 10 µM): significantly accelerated the decay kinetics of sIPSCs in some
decay kinetics of sIPSCs ([8]; 30 µM): significantly reducing decay kinetics in all investigated neurons
